# Measurements from patent publication US11566007B2, “Ras inhibitors” (Revolution Medicines, Inc., priority 2019, dated 2023).
# Where two headings read alike, the source gives them in different places.
# Key:
# [1] = tested on: NCI-H358 cells (K-Ras G12C); test: Potency assay: pERK in NCI-H358 cells; format: cell-based, human; conditions: Homo sapiens
# Summary of the method: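 Compounds are dosed as ten 3-fold dilutions from a 10 mM DMSO stock, in duplicate, and left on cells for 4 h at 37 °C, 5% CO2. Phospho-ERK1/2 is then quantified by AlphaLISA SureFire Ultra or In-Cell Western, and IC50 is derived from a 4-parameter sigmoid against log concentration.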
# KRAS G12V = KRAS G12V (Homo sapiens (Human), UniProt P01116+P62937, G12V); test: Ras-Raf (BRAF RBD) disruption / FRET / MOA assay, KRAS G12V; format: biochemical; conditions: read-out: IC50* KRAS G12V FRET data
# Summary of the method: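 Ternary complex formation (Ras–compound–cyclophilin A) displacing BRAF RBD, monitored by TR-FRET. Three hours at 25° C with compound (top 30 μM final), then 1.5 h with the labelled antibodies. Lower ratio than DMSO indicates disruption; IC50 reported.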
# [2] = NCI-H358, H358 KRAS G12C, read-out: pERK EC50
# Sequence of KRAS G12V (P01116-2 other isoform, or with tags, fused parts or gaps G12V): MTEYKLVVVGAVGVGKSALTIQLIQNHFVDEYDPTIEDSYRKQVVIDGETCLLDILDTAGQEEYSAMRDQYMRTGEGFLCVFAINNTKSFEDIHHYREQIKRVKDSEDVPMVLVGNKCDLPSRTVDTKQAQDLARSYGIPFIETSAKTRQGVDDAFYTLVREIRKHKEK
# Sequence of KRAS G12V (P62937 whole entry): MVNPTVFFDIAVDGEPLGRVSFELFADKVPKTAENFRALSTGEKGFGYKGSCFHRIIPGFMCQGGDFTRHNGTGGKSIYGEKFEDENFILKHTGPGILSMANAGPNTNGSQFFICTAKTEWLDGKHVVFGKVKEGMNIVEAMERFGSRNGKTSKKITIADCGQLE
SMILES,"EC50 [1, 2]",IC50 (KRAS G12V),"EC50 ([1]; NCI-H358, read-out: pERK EC50)"
"C=CC(=O)N1CC[C@H](C(=O)N(C)[C@H](C(=O)N[C@H]2CN3CCC=C(C3)c3ccc4c(c3)c(c(-c3cccnc3[C@H](C)OC)n4CC)CC(C)(C)COC(=O)[C@@H]3CCCN(N3)C2=O)C(C)C)C1 (atropisomer, axis not shown) [Example A716, (3S)-1-acryloyl-N-((2S)-1-(((6^3S,4S)-1^1-ethyl-1^2-(2-((S)-1-methoxyethyl)pyridin-3-yl)-10,10-dimethyl-5,7-dioxo-2^1,2^2,2^3,2^6,6^1,6^2,6^3,6^4,6^5,6^6-decahydro-1^1H-8-oxa-1(5,3)-indola-6(1,3)-pyridazina-2(5,1)-pyridinacycloundecaphane-4-yl)amino)-3-methyl-1-oxobutan-2-yl)-N-methylpyrrolidine-3-carboxamide]",< 5 µM,1 to 10 µM,
"CCn1c(-c2cccnc2[C@H](C)OC)c2c3cc(ccc31)-c1nc(nn1C)C[C@H](NC(=O)[C@@H](COC1CN(C(=O)C#CC(C)(C)N(C)C)C1)C(C)C)C(=O)N1CCC[C@H](N1)C(=O)OCC(C)(C)C2 (atropisomer, axis not shown) [Example A720, (2R)-2-(((1-(4-(dimethylamino)-4-methylpent-2-ynoyl)azetidin-3-yl)oxy)methyl)-N-((6^3S,4S,Z)-1^1-ethyl-1^2-(2-((S)-1-methoxyethyl)pyridin-3-yl)-2^1,10,10-trimethyl-5,7-dioxo-6^1,6^2,6^3,6^4,6^5,6^6-hexahydro-1^1H,2^1H-8-oxa-1(5,3)-indola-6(1,3)-pyridazina-2(5,3)-triazolacycloundecaphane-4-yl)-3-methylbutanamide]",< 5 µM,1 to 10 µM,
"C=CC(=O)N1CCC(F)(C(=O)N(C)[C@H](C(=O)N[C@H]2C[C@H]3CN(CCO3)c3ccc4c(c3)c(c(-c3cccnc3[C@H](C)OC)n4CC)CC(C)(C)COC(=O)[C@@H]3CCCN(N3)C2=O)C(C)C)CC1 (atropisomer, axis not shown) [Example A722, 1-acryloyl-N-((2S)-1-(((6^3S,4S)-1^1-ethyl-1^2-(2-((S)-1-methoxyethyl)pyridin-3-yl)-10,10-dimethyl-5,7-dioxo-6^1,6^2,6^3,6^4,6^5,6^6-hexahydro-1^1H-8-oxa-2(4,2)-morpholina-1(5,3)-indola-6(1,3)-pyridazinacycloundecaphane-4-yl)amino)-3-methyl-1-oxobutan-2-yl)-4-fluoro-N-methylpiperidine-4-carboxamide]",< 5 µM,1 to 10 µM,
"C=CC(=O)N1CC(OC[C@H](C(=O)N[C@H]2C[C@H]3CN(CCO3)c3ccc4c(c3)c(c(-c3cccnc3[C@H](C)OC)n4CC(F)(F)F)CC(C)(C)COC(=O)[C@@H]3CCCN(N3)C2=O)C(C)C)C1 (atropisomer, axis not shown) [Example A723]",< 5 µM,1 to 10 µM,
"CCn1c(-c2cccnc2[C@H](C)OC)c2c3cc(ccc31)-c1csc(n1)C[C@H](NC(=O)[C@H](C(C)C)N(C)C(=O)N(C)C1CN(C(=O)/C=C/[C@H]3CCCN3C)C1)C(=O)N1CCC[C@H](N1)C(=O)OCC(C)(C)C2 (atropisomer, axis not shown) [Example A729]",< 5 µM,1 to 10 µM,
"CCn1c(-c2cccnc2[C@H](C)OC)c2c3cc(ccc31)-c1csc(n1)C[C@H](NC(=O)[C@H](C(C)C)N(C)C(=O)N(C)C1CN(C(=O)/C=C/[C@@H]3CCCN3C)C1)C(=O)N1CCC[C@H](N1)C(=O)OCC(C)(C)C2 (atropisomer, axis not shown) [Example A730]",< 5 µM,1 to 10 µM,
"CC#CC(=O)N1CC(N(C)C(=O)N(C)[C@H](C(=O)N[C@H]2Cc3nc(cs3)-c3ccc4c(c3)c(c(-c3cccnc3[C@H](C)OC)n4CC)CC(C)(C)COC(=O)[C@@H]3CCCN(N3)C2=O)C(C)C)C1 (atropisomer, axis not shown) [Example A731]",< 5 µM,1 to 10 µM,
"C=C(F)C(=O)N1CC(N(C)C(=O)N(C)[C@H](C(=O)N[C@H]2Cc3nc(cs3)-c3ccc4c(c3)c(c(-c3cccnc3[C@H](C)OC)n4CC)CC(C)(C)COC(=O)[C@@H]3CCCN(N3)C2=O)C(C)C)C1 (atropisomer, axis not shown) [Example A732]",< 5 µM,1 to 10 µM,
"C=CC(=O)N1CCN(C(=O)N(C)[C@H](C(=O)N[C@H]2Cc3nc(cs3)-c3ccc4c(c3)c(c(-c3cccnc3[C@H](C)OC)n4CC)CC(C)(C)COC(=O)[C@@H]3CCCN(N3)C2=O)C(C)C)[C@H]2C[C@H]21 (atropisomer, axis not shown) [Example A737]",< 5 µM,0.1 to 1 µM,
"C=CS(=O)(=O)N1CCC(C(=O)N(C)[C@H](C(=O)N[C@H]2Cc3nc(cs3)-c3ccc4c(c3)c(c(-c3cncnc3)n4CC)CC(C)(C)COC(=O)[C@@H]3CCCN(N3)C2=O)C(C)C)C1 (single isomer, unassigned) [Example A170]",< 5 µM,> 10 µM,
"C=CS(=O)(=O)N1CCC(C(=O)N(C)[C@H](C(=O)N[C@H]2Cc3cccc(c3)-c3ccc4c(c3)c(c(-c3cncnc3)n4CC)CC(C)(C)COC(=O)[C@@H]3CCCN(N3)C2=O)C(C)C)C1 (single isomer, unassigned) [Example A171]",< 5 µM,> 10 µM,
C=CC(=O)N1CC[C@H](C(=O)N(C)[C@H](C(=O)N[C@H]2Cc3cc(ccn3)-c3ccc4c(c3)c(c(-c3cccnc3COC)n4CC)CC(C)(C)COC(=O)[C@@H]3CCCN(N3)C2=O)C(C)C)C1 [Example A136],< 5 µM,> 10 µM,
C=CC(=O)N1CC[C@H](C(=O)N(C)[C@H](C(=O)N[C@H]2Cc3cc(O)cc(c3)-c3ccc4c(c3)c(c(-c3cncs3)n4CC)CC(C)(C)COC(=O)[C@@H]3CCCN(N3)C2=O)C(C)C)C1 [Example A143],< 5 µM,1 to 10 µM,
C=CC(=O)N1CC[C@H](C(=O)N(C)[C@H](C(=O)N[C@H]2Cc3cc(O)cc(c3)-c3ccc4c(c3)c(c(-c3cccc(=O)n3C(C)C)n4CC)CC(C)(C)COC(=O)[C@@H]3CCCN(N3)C2=O)C(C)C)C1 [Example A151],< 5 µM,1 to 10 µM,
C=CC(=O)N1CC[C@H](C(=O)N(C)[C@H](C(=O)N[C@H]2Cc3cc(O)cc(c3)-c3ccc4c(c3)c(c(-c3cccnc3)n4[C@H](C)C#N)CC(C)(C)COC(=O)[C@@H]3CCCN(N3)C2=O)C(C)C)C1 [Example A193],,0.1 to 1 µM,< 5 µM
C=CC(=O)N1CC[C@H](C(=O)N(C)[C@H](C(=O)N[C@H]2Cc3cc(O)cc(c3)-c3ccc4c(c3)c(c(-c3c(C)cccc3C)n4CC)CC(C)(C)COC(=O)[C@@H]3CCCN(N3)C2=O)C(C)C)C1 [Example A226],< 5 µM,1 to 10 µM,
C=CC(=O)N1CC[C@H](C(=O)N(C)[C@H](C(=O)N[C@H]2Cc3cc(O)cc(c3)-c3ccc4c(c3)c(c(-c3cccc5c3COC5)n4CC)CC(C)(C)COC(=O)[C@@H]3CCCN(N3)C2=O)C(C)C)C1 [Example A227],< 5 µM,1 to 10 µM,
C=CC(=O)N1CC[C@H](C(=O)N(C)[C@H](C(=O)N[C@H]2Cc3cc(O)cc(c3)-c3ccc4c(c3)c(c(-c3ncn(C)c3[C@H](C)OC)n4CC)CC(C)(C)COC(=O)[C@@H]3CCCN(N3)C2=O)C(C)C)C1 [Example A301],< 5 µM,1 to 10 µM,
C=CC(=O)N1CC[C@H](C(=O)N(C)[C@H](C(=O)N[C@H]2Cc3cc(O)cc(c3)-c3ccc4c(c3)c(c(-c3cnc(N(C)C)s3)n4CC)CC(C)(C)COC(=O)[C@@H]3CCCN(N3)C2=O)C(C)C)C1 [Example A302],< 5 µM,1 to 10 µM,
C=CC(=O)N1CC[C@H](C(=O)N(C)[C@H](C(=O)N[C@H]2Cc3cc(O)cc(c3)-c3ccc4c(c3)c(c(-c3csc(N(C)C)n3)n4CC)CC(C)(C)COC(=O)[C@@H]3CCCN(N3)C2=O)C(C)C)C1 [Example A303],< 5 µM,> 10 µM,
C=CC(=O)N1CCOC2(CCN(C(=O)N(C)[C@H](C(=O)N[C@H]3C[C@H]4CN(CCO4)c4ccc5c(c4)c(c(-c4cccnc4[C@H](C)OC)n5CC)CC(C)(C)COC(=O)[C@@H]4CCCN(N4)C3=O)C(C)C)CC2)C1 [Example A564],< 5 µM,0.1 to 1 µM,
CCn1c(-c2cccnc2[C@H](C)OC)c2c3cc(ccc31)-c1cccc(c1)CC(NC(=O)[C@H](C(C)C)N1CC[C@]3(CCN(C(=O)C#C[C@@H]4COCCN4C4COC4)C3)C1=O)C(=O)N1CCC[C@H](N1)C(=O)OCC(C)(C)C2 (some centres unmarked) [Example A565],< 5 µM,1 to 10 µM,
C=CC(=O)N1CC[C@H](C(=O)N(C)[C@H](C(=O)N[C@H]2Cc3cccc(c3)-c3ccc4c(c3)c(c(-c3cccnc3[C@H](C)OC)n4CC)CC(C)(C)COC(=O)[C@@H]3CCCN(N3)C2=O)C(C)C(F)(F)F)C1 (some centres unmarked) [Example A641],< 5 µM,1 to 10 µM,
"CCn1c(-c2cccnc2[C@H](C)OC)c2c3cc(ccc31)C1CCCN(C1)C[C@H](NC(=O)[C@@H](COC1CN(C(=O)C#CC(C)(C)N(C)C)C1)C(C)C)C(=O)N1CCC[C@H](N1)C(=O)OCC(C)(C)C2 [Example A646, (2R)-2-(((1-(4-(dimethylamino)-4-methylpent-2-ynoyl)azetidin-3-yl)oxy)methyl)-N-((6^3S,4S)-1^1-ethyl-1^2-(2-((S)-1-methoxyethyl)pyridin-3-yl)-10,10-dimethyl-5,7-dioxo-6^1,6^2,6^3,6^4,6^5,6^6-hexahydro-1^1H-8-oxa-1(5,3)-indola-6(1,3)-pyridazina-2(3,1)-piperidinacycloundecaphane-4-yl)-3-methylbutanamide]",< 5 µM,> 10 µM,
C=CC(=O)C1CC[C@H](C(=O)N(C)[C@H](C(=O)N[C@H]2Cc3nsc(n3)-c3ccc4c(c3)c(c(-c3cccnc3[C@H](C)OC)n4CC)CC(C)(C)COC(=O)[C@@H]3CCCN(N3)C2=O)C(C)C)C1 (some centres unmarked) [Example A694],< 5 µM,1 to 10 µM,
